We go through nine compounds from patent US20190100725A1, “CELL CULTURE MEDIUM AND CULTURE MEDIUM SUPPLEMENT” (Institute of Biophysics, Chinese Academy of Sciences, priority 2016, published 2019).

Format in all cases: cell-based, human
The test system of one experiment is hESC line H7. The experiment in a line: Cardiac differentiation of hESC line H7, FACS of CTNT-positive cells and cardiomyocyte yield. Particulars: for cardiac differentiation efficacy (in words): individual addition of the antioxidant to S12 basal medium. The protocol:
(§1) For small molecule-induced cardiac differentiation, hESC line H7 or hiPSCs were digested with Versene solution into single cells and seeded on VTN-NC-coated, 24-well plates at a density of 2.5-3.0×10^5 cells/well. Y27632 (10 μM) was supplemented on the first day and withdrawn thereafter. Cultures were maintained in E8 medium for 2-3 days until they reached 90% confluence. To initiate cell differentiation (designated as day 0), the medium was changed to S12 medium without insulin. Cells were treated with 4-8 μM CHIR99021 (Tocris, 4423) for 1 day. Then, the medium was replaced with fresh medium without CHIR99021. At day 3, 5 μM IWR-1 (Sigma-Aldrich, 10161) was supplied with fresh medium for 2 days. From day 5, insulin-containing S12 medium was used. Thereafter, the medium was changed every other day (FIG. 1a).
(§2) Cardiomyocytes were digested into single cells with 0.25% trypsin-EDTA (Life Technology, 25200-072) at 37° C. for about 5 min, and washed with buffer B, which contains 0.5% bovine serum albumin (Sigma, A9418-50G) in phosphate-buffered saline (PBS). Then the cells were fixed with 4% paraformaldehyde at room temperature and washed with buffer A, which contains 0.5% bovine serum albumin and 0.1% saponin (Sigma-Aldrich, S7900) in PBS. The cells were then incubated with an anti-human CTNT primary antibody (R&D systems, MAB1874) for 40 min at 4° C. and washed with buffer A, followed by incubation with a goat anti-mouse FITC-conjugated secondary antibody (ZSGB-BIO, ZF-0312) for 40 min at 4° C. Data were collected on FACScalibur (Becton Dickinson) and analyzed with FlowJo software (Treestar).

The subject of experiment [1] is hPSC-derived ventricular-like cardiomyocytes. The experiment in a line: Perforated whole-cell patch clamp, evoked AP of ventricular-like cardiomyocytes paced at 1 Hz. The note with it: for APA / APD50 / APD90 / MDP / dV/dT: evoked AP, 1 Hz, percentage of untreated cardiomyocytes, mean±SEM. How it is done: Perforated whole-cell recording was used for pharmacological tests.
Nifedipine (Sigma-Aldrich, N7634) was prepared in DMSO. […] Other chemicals were from Sigma-Aldrich.

A further experiment relates to hiPSC lines. As to the kind of experiment: Cardiac differentiation of hiPSC lines in S12 medium, FACS of CTNT-positive cells. Particulars: for percentage of CTNT-positive cells after glucose deprivation enrichment: 2 days of glucose deprivation (glucose replaced with DL-lactate); for percentage of CTNT-positive cells before glucose deprivation enrichment: hiPSC line XVF 4 in S12 medium, 1 μM, days 5-8. How it is done:
as §1
(§3) For directed differentiation of atrial or ventricular myocytes, 1 μM RA (Sigma-Aldrich, R2625) or 1 μM BMS493 (Tocris, 3509) was added to the differentiating cultures during days 5-8 of differentiation as described previously^9.
as §2

The subject of experiment [2] is hiPSC-derived cardiomyocytes. As to the kind of experiment: Whole-cell patch clamp classification of AP types in RA- and BMS493-treated cultures. The protocol:
The dissociation method used has been described previously^9. Briefly, 25-30-day-old differentiated cardiomyocyte clusters were washed with a low Ca^2+ solution, and then incubated in 1 mg/mL collagenase II (Life Technology, 17101-015) dissolved in a low Ca^2+ solution for 30-40 min at 37° C. The isolated cells were suspended in S12 medium containing 10% FBS, transferred to 0.1% gelatin-coated glass coverslips, and then maintained in a 5% CO2 incubator at 37° C.
Action potential (AP) and ion channel activities, which are critical for normal functions of cardiomyocytes, were investigated using whole-cell patch clamp technology on single cardiomyocytes. The classification of nodal-, atrial- and ventricular-like APs was based on the AP properties. Particularly, nodal-like AP has a slower maximal upstroke velocity (dV/dt), smaller action potential amplitude (APA), depolarized maximum diastolic potential (MDP), and faster beating rate than those of atrial- and ventricular-like APs. An AP duration at 90%0, of repolarization (APD90) value of 150 ms was used to classify atrial- and ventricular-like APs, because of the significant plateau phase of ventricular AP^21, 22. […] The parameters of the three AP types recorded were also analyzed (FIG. 3c).

The subject of experiment [3] is hiPSC line XVF 4. As to the kind of experiment: QPCR of IRX4 and NR2F2 in RA- or BMS493-treated hiPSC cultures. The note with it: 14-day-old cultures; BMS493-treated versus RA-treated. How it is done:
as §3
Total RNA was isolated using RNeasy Plus Mini kit (Qiagen, 74134). One microgram of total RNA was reverse transcribed using the PrimeScript™ RT reagent kit with gDNA eraser (Takara, RR047A). RT-PCR was performed with 2×Taq Mix (CW-BIO, CW0682C) according to the manufacturer's instructions. PCR products were analyzed using 1.5% agarose gel electrophoresis. QPCR was performed in triplicate using the 2×QuantiFast SYBR Green I PCR Master Mix (Qiagen, 204057) on a Rotor Gene 6200 Real-Time PCR Machine (Corbett) with an annealing temperature of 60° C. The expression of each gene was normalized to GAPDH gene expression. The primer sequences are listed in Table 4 (primer sequences for RT-PCR) and Table 5 (primer sequences for QPCR).

Experiment [4] has as its system hiPSC line XVF 4. The experiment in a line: Double immunofluorescence staining of MLC2V and CTNT in 60-day-old cultures. How it is done: Differentiated cultures were digested with 0.25% trypsin-EDTA, and the cells were plated on 0.1% gelatin-coated coverslips for 5 days to allow full attachment. The coverslips were washed with PBS and fixed in 4% paraformaldehyde for 20 min at 4° C. The fixed cells were then permeabilized with 0.1% Triton X-100 for 20 min at 4° C., and blocked with 10% goat serum (ZSGB-BIO, ZLI-9021) for 1 h at room temperature. Then, the cells were incubated overnight at 4° C. with the following primary antibodies: anti-human CTNT (R&D systems, MAB1874), mouse anti-human α-actinin (Sigma-Aldrich, A7811), mouse anti-human MHC (Abcam, ab15), goat anti-human α-SMA (Abcam, ab5694), mouse anti-human MLC2A (Synaptic Systems, 311011) and rabbit anti-human MLC2V (ProteinTech, 10906-1-AP). Goat anti-mouse 488- (ZSGB-BIO, ZF-0512) or 594-conjugated secondary antibody (ZSGB-BIO, ZF-0513), and goat anti-rabbit 488- (ZSGB-BIO, ZF-0511) or 594-conjugated secondary antibody (ZSGB-BIO, ZF-0516) were used as secondary antibodies. Nuclei were counterstained with 4′,6-diamidino-2-phenylindole (DAPI) (Sigma-Aldrich, D0542). Immunofluorescence images were visualized and recorded using an Olympus microscope system X51 or Olympus LSCM FV1000 (Olympus).

Consider `O=C1O[C@H]([C@@H](O)CO)C(O)=C1O` [L-ascorbic acid], for which the “cardiac differentiation efficacy (in words)” value with hESC line H7 was “marginally improved”.

In experiment [1] (1 nM), `Cc1cccc(CCN2CCC(C(=O)c3ccc(NS(C)(=O)=O)cc3)CC2)n1` [E-4031] yielded an APA of 102.9 ± 1.1%, an APD50 of 103.8 ± 3.8%, an APD90 of 102.1 ± 3.1% and an MDP of 101.9 ± 1.2%. This compound had a dV/dT in experiment [1] (1 nM) of 101.2 ± 8.0%. Moreover, the “effects on the AP” value in experiment [1] (10 nM, 1 Hz stimulation) is reported as “minor effects”. Further, in experiment [1] (10 nM), the APA was determined as 103.8 ± 1.5%, the APD50 was 110.1 ± 5.4%, the APD90 is listed as 112.1 ± 5.0% and the MDP turned out to be 101.5 ± 1.7%. In experiment [1] (10 nM), the dV/dT was 112.4 ± 5.5%. In experiment [1] (100 nM), the APA came to 103.0 ± 2.3%, the APD50 turned out to be 144.0 ± 6.7 %, the APD90 came out at 169.6±13.4% and the MDP came out at 99.6 ± 2.9%. Besides, the dV/dT in experiment [1] (100 nM) amounted to 111.4 ± 9.6%. In experiment [1] (1000 nM), this compound registered an APA of 95.6 ± 4.0%, an APD50 of 151.1 ± 7.5 %, an APD90 of 195.6±12.3% and an MDP of 92.4 ± 2.8%. In experiment [1] (1000 nM), this compound displayed a dV/dT of 95.6 ± 7.4%. Moreover, in experiment [1] (1 Hz stimulation (0.1-0.3 nA), dose dependence), the AP duration entry was “prolonged the AP duration in a dose-dependent manner”. Also, in experiment [1] (1 Hz stimulation, up to 1000 nM), the “change in APA and dV/dt” value is given as “no significant change”.

In experiment [1] (1 nM), `COC(=O)C1=C(C)NC(C)=C(C(=O)OC)C1c1ccccc1[N+](=O)[O-]` [Nifedipine] returned an APA of 96.7 ± 2.7%, an APD50 of 92.7 ± 2.1%, an APD90 of 94.6 ± 2.0% and an MDP of 99.7 ± 2.7%. The compound also displayed a dV/dT in experiment [1] (1 nM) of 90.6 ± 4.1%. In experiment [1] (10 nM), this compound displayed an APA of 96.2 ± 0.7%, an APD50 of 70.1 ± 2.9 %, an APD90 of 73.6±2.7% and an MDP of 103.5 ± 1.1%. In experiment [1] (10 nM), this compound returned a dV/dT of 96.4 ± 5.9%. In experiment [1] (100 nM), this compound returned an APA of 88.3 ± 2.4%, an APD50 of 55.3 ± 4.3 %, an APD90 of 60.8±4.3% and an MDP of 100.8 ± 2.9%. This compound returned a dV/dT in experiment [1] (100 nM) of 86.1 ± 8.8%. In experiment [1] (1000 nM), this compound gave an APA of 73.8 ± 4.4 %, an APD50 of 36.0 ± 3.3 %, an APD90 of 47.1±6.1% and an MDP of 100.8 ± 3.1%. This compound also yielded a dV/dT in experiment [1] (1000 nM) of 60.0 ± 11.3 %.

Regarding `Cc1c(C)c2c(c(C)c1O)CCC(C)(C(=O)O)O2` (stereo not drawn) [trolox], the “cardiac differentiation (FACS for CTNT positive cells)” value with hESC line H7 (added to B27-based medium with six compounds removed, VTN-NC first three days) was “efficiently supported cardiac differentiation”. In addition, in the experiment with hESC line H7, the “cardiac differentiation efficacy (in words)” value is reported as “marginally improved”.

In the case of `CC1=C(/C=C/C(C)=C/C=C/C(C)=C/C(=O)O)C(C)(C)CCC1` [RA, retinoic acid], in the experiment on hiPSC lines, the “percentage of CTNT-positive cells after glucose deprivation enrichment” value is 95.7% and the “percentage of CTNT-positive cells before glucose deprivation enrichment” value is 85%. The “percentage of recorded APs that were atrial-like” value in experiment [2] (30-day-old cardiomyocytes, n=31) came to 90.3%.

Regarding `CC(=O)N[C@@H](CS)C(=O)O` [N-acetyl-L-cysteine], in the experiment on hESC line H7, the “cardiac differentiation efficacy (in words)” value is “marginally improved”.

As to `CC1(C)CC=C(C#Cc2ccccc2)c2cc(/C=C/c3ccc(C(=O)O)cc3)ccc21` [BMS493], in the experiment on hiPSC lines, the “percentage of CTNT-positive cells after glucose deprivation enrichment” value came out at 94.3% and the “percentage of CTNT-positive cells before glucose deprivation enrichment” value turned out to be 86.3%. Besides, the “expression level of ventricular-specific gene IRX4” value with hiPSC line XVF 4 [3] is recorded as “significantly higher”. The “MLC2V expression in cardiomyocytes” value with hiPSC line XVF 4 [4] is given as “widely expressed”. The “percentage of recorded APs that were ventricular-like” value in experiment [2] was found to be 93.3%.

With `CC(=O)C(=O)[O-].[Na+]` [sodium pyruvate], the “cardiac differentiation efficacy (in words)” value in the experiment on hESC line H7 is given as “marginally improved”.

On to `CC(C)NCC(O)c1ccc(O)c(O)c1` (stereo not drawn) [Isoproterenol], for which, in experiment [1] (1 nM), the APA was 99.9 ± 1.7%, the APD50 is recorded as 99.1 ± 0.7%, the APD90 was determined as 97.3 ± 1.7% and the MDP is given as 101.2 ± 1.5%. The compound further displayed a dV/dT in experiment [1] (1 nM) of 99.9 ± 3.0%. In experiment [1] (10 nM), this compound gave an APA of 101.7 ± 1.6%, an APD50 of 93.0 ± 1.6%, an APD90 of 92.0 ± 2.5% and an MDP of 102.8 ± 2.3%. In experiment [1] (10 nM), the dV/dT stood at 108.1 ± 1.8%. In experiment [1] (100 nM), this compound gave an APA of 102.1 ± 2.5%, an APD50 of 90.7 ± 1.8%, an APD90 of 90.8 ± 1.8% and an MDP of 104.8 ± 3.7%. In experiment [1] (100 nM), this compound showed a dV/dT of 105.6 ± 2.5%. Besides, in experiment [1] (1000 nM), the APA was 99.0 ± 5.2%, the APD50 is on record as 87.0 ± 1.6 %, the APD90 stood at 87.3 ± 1.6 % and the MDP amounted to 101.8 ± 5.0%. In addition, the dV/dT in experiment [1] (1000 nM) came out at 105.3 ± 3.1%. In addition, in experiment [1] (1 Hz stimulation), the “APD90 (in words)” value is “minor reduction”. Moreover, in experiment [1] (1 Hz stimulation, except APD90), the “effects on the parameters of AP” value was “no significant effects”.
